Assay results: patent publication US9145425B2, “Cephem compound having catechol group” (SHIONOGI & CO., LTD., priority 2010, dated 2015)
Converted amounts (≈) assume the structure as drawn.

Assays:
Assay type in all cases: cell-based
[1] = system: Stenotrophomonas maltophilia SR21970; test: Minimum Inhibitory Concentration (MIC), agar plate incubation, CLSI method; settings: Stenotrophomonas maltophilia SR21970, L-1, MBL producer strain (carbapenem resistant strain), 10000 cfu/spot, Mueller-Hinton agar medium; for MIC: read-out: Minimum Inhibitory Concentration (MIC)
Procedure: (§1) The antimicrobial activity in vitro of the present compound (I) was determined.
Measurement of Minimum Inhibitory Concentration (MIC, μg/ml) was conducted according to the CLSI (Clinical and Laboratory Standards Institute) and the amount of bacteria for inoculation was 10000 cfu/spot, and Mueller-Hinton agar medium was used as the test medium, and conducted using agar plate incubation.
(§2) In the tables, the unit of the values of inhibitory activity is μg/ml.

[2] = system: Pseudomonas aeruginosa SR24; test: Minimum Inhibitory Concentration (MIC), agar plate incubation, Japan Society for Chemotherapy standard method; settings: Pseudomonas aeruginosa SR24, no enzyme, ceftazidime sensitive strain, 1000 cfu/spot, sensitive disc medium; for MIC: read-out: Minimum Inhibitory Concentration (MIC)
Procedure: as §1
(§3) Measurement of Minimum Inhibitory Concentration (MIC, μg/ml) was conducted according to the standard method of the Japan Society for Chemotherapy and the amount of bacteria for inoculation was 1000 cfu/spot, and sensitive disc medium was used as the test medium, and conducted using agar plate incubation.
as §2

[3] = system: Acinetobacter baumannii SR24396; test: as above; settings: Acinetobacter baumannii SR24396, no enzyme, 1000 cfu/spot, sensitive disc medium; for MIC: read-out: Minimum Inhibitory Concentration (MIC)
Procedure: as §1, §3, §2

[4] = system: Pseudomonas aeruginosa SR27060; test: as above; settings: Pseudomonas aeruginosa SR27060, IMP-1, MBL producer strain (carbapenem resistant strain), 1000 cfu/spot, sensitive disc medium; for MIC: read-out: Minimum Inhibitory Concentration (MIC)
Procedure: as §1, §3, §2

[5] = system: Klebsiella pneumoniae ATCC 700603; test: as above; settings: Klebsiella pneumoniae ATCC 700603, SHV-18, ESBL producer strain, 1000 cfu/spot, sensitive disc medium; for MIC: ATCC700603, read-out: Minimum Inhibitory Concentration (MIC)
Procedure: as §1, §3, §2

SMILES | Minimum Inhibitory Concentration (MIC) [1] | Minimum Inhibitory Concentration (MIC) [2] | Minimum Inhibitory Concentration (MIC) [3] | Minimum Inhibitory Concentration (MIC) [4] | Minimum Inhibitory Concentration (MIC) [5] | MIC [1] | MIC [2] | MIC [3] | MIC [4] | MIC [5]
CC(C)(O/N=C(\C(=O)N[C@@H]1C(=O)N2C(C(=O)[O-])=C(C[N+]3(C)[C@@H]4CC[C@H]3C[C@@H](NC(=O)c3ccc(O)c(O)c3Cl)C4)CS[C@H]12)c1csc(N)n1)C(=O)O (stereo partly drawn) [II-2] | – | – | – | – | – | 2 µg/mL (≈ 2.57 µM) | 0.125 µg/mL (≈ 0.161 µM) | 0.25 µg/mL (≈ 0.321 µM) | 1 µg/mL (≈ 1.28 µM) | 0.5 µg/mL (≈ 0.642 µM)
C[N+]1(CC2=C(C(=O)[O-])N3C(=O)[C@@H](NC(=O)/C(=N\O[C@@H](CC(=O)O)C(=O)O)c4csc(N)n4)[C@H]3SC2)[C@@H]2CC[C@H]1C[C@@H](NC(=O)c1ccc(O)c(O)c1Cl)C2 (stereo partly drawn) [II-3] | – | – | – | – | – | 0.5 µg/mL (≈ 0.619 µM) | 0.125 µg/mL (≈ 0.155 µM) | 0.125 µg/mL (≈ 0.155 µM) | 0.5 µg/mL (≈ 0.619 µM) | 0.5 µg/mL (≈ 0.619 µM)
C[N+]1(CC2=C(C(=O)[O-])N3C(=O)[C@@H](NC(=O)/C(=N\O[C@@H](CC(=O)O)C(=O)O)c4csc(N)n4)[C@H]3SC2)[C@@H]2CC[C@H]1C[C@H](NC(=O)c1ccc(O)c(O)c1Cl)C2 (stereo partly drawn) [II-9] | – | – | – | – | – | 0.25 µg/mL (≈ 0.309 µM) | 0.25 µg/mL (≈ 0.309 µM) | 0.063 µg/mL (≈ 0.0779 µM) | 0.5 µg/mL (≈ 0.619 µM) | 1 µg/mL (≈ 1.24 µM)
Nc1nc(C(=NOC(CC(=O)[O-])C(=O)[O-])C(=O)NC2C(=O)N3C(C(=O)[O-])=C(C[N+]45CCCC4CN(C(=O)c4ccc(O)c(O)c4F)CC5)CSC23)cs1.[Na+].[Na+] (stereo not drawn) [II-28] | 0.5 µg/mL | 0.125 µg/mL | 0.125 µg/mL | 1 µg/mL | 0.25 µg/mL | – | – | – | – | –
CC(C)(O/N=C(\C(=O)N[C@@H]1C(=O)N2C(C(=O)O)=C(C[N+]3(CCNC(=O)c4ccc(O)c(O)c4F)CCCC3)CS[C@H]12)c1csc(N)n1)C(=O)[O-] [II-29] | – | – | – | – | – | 0.5 µg/mL (≈ 0.68 µM) | 0.125 µg/mL (≈ 0.17 µM) | 0.25 µg/mL (≈ 0.34 µM) | 0.5 µg/mL (≈ 0.68 µM) | 0.125 µg/mL (≈ 0.17 µM)
CC(C)(O/N=C(\C(=O)N[C@@H]1C(=O)N2C(C(=O)O)=C(C[N+]3(C)[C@@H]4CC[C@H]3C[C@@H](NC(=O)c3ccc(O)c(O)c3F)C4)CS[C@H]12)c1csc(N)n1)C(=O)[O-] (stereo partly drawn) [II-36] | – | – | – | – | – | 1 µg/mL (≈ 1.31 µM) | 0.25 µg/mL (≈ 0.328 µM) | 0.25 µg/mL (≈ 0.328 µM) | 0.5 µg/mL (≈ 0.656 µM) | 0.5 µg/mL (≈ 0.656 µM)
CC(C)(O/N=C(\C(=O)N[C@@H]1C(=O)N2C(C(=O)O)=C(C[N+]3(C)[C@@H]4CC[C@H]3C[C@@H](NC(=O)c3cc(O)c(O)c(F)c3)C4)CS[C@H]12)c1csc(N)n1)C(=O)[O-] (stereo partly drawn) [II-47] | – | – | – | – | – | 0.5 µg/mL (≈ 0.656 µM) | 0.063 µg/mL (≈ 0.0827 µM) | 0.25 µg/mL (≈ 0.328 µM) | 0.25 µg/mL (≈ 0.328 µM) | 0.25 µg/mL (≈ 0.328 µM)
C[N+]1(CC2=C(C(=O)[O-])N3C(=O)[C@@H](NC(=O)/C(=N\O[C@@H](CC(=O)[O-])C(=O)[O-])c4csc(N)n4)[C@H]3SC2)[C@@H]2CC[C@H]1C[C@@H](NC(=O)c1cc(O)c(O)c(F)c1)C2.[Na+].[Na+] (stereo partly drawn) [II-48] | 0.5 µg/mL | 0.063 µg/mL | 0.125 µg/mL | 0.25 µg/mL | 0.25 µg/mL | – | – | – | – | –

Other lines, results leading:

Minimum Inhibitory Concentration (MIC) [1] | Minimum Inhibitory Concentration (MIC) [2] | Minimum Inhibitory Concentration (MIC) [3] | Minimum Inhibitory Concentration (MIC) [4] | Minimum Inhibitory Concentration (MIC) [5] | MIC [1] | MIC [2] | MIC [3] | MIC [4] | MIC [5] | SMILES
1 µg/mL | 0.063 µg/mL | 0.25 µg/mL | 1 µg/mL | 0.25 µg/mL | – | – | – | – | – | CC(C)(O/N=C(\C(=O)N[C@@H]1C(=O)N2C(C(=O)[O-])=C(C[N+]3(C)CCC4(CCN(C(=O)c5ccc(O)c(O)c5Cl)CC4)CC3)CS[C@H]12)c1csc(N)n1)C(=O)[O-].[Na+] [Compound I-42]
1 µg/mL | 0.063 µg/mL | 0.125 µg/mL | 0.5 µg/mL | 0.25 µg/mL | – | – | – | – | – | Nc1nc(/C(=N/O[C@H](C(=O)[O-])c2ccccc2)C(=O)N[C@@H]2C(=O)N3C(C(=O)[O-])=C(C[N+]4(CCNC(=O)c5ccc(O)c(O)c5Cl)CCCC4)CS[C@H]23)ns1.[Na+] [Compound I-51]
– | – | – | – | – | 1 µg/mL (≈ 1.23 µM) | 0.125 µg/mL (≈ 0.154 µM) | 0.125 µg/mL (≈ 0.154 µM) | 2 µg/mL (≈ 2.46 µM) | 0.5 µg/mL (≈ 0.615 µM) | Nc1nc(/C(=N/O[C@H](C(=O)[O-])c2ccccc2)C(=O)N[C@@H]2C(=O)N3C(C(=O)O)=C(C[N+]45CCC[C@H]4CN(C(=O)c4ccc(O)c(O)c4Cl)CC5)CS[C@H]23)ns1 (stereo partly drawn) [Compound I-52]
0.5 µg/mL | 0.063 µg/mL | 0.125 µg/mL | 0.25 µg/mL | 0.25 µg/mL | – | – | – | – | – | Nc1nc(/C(=N/O[C@@H](CC(=O)[O-])C(=O)[O-])C(=O)N[C@@H]2C(=O)N3C(C(=O)[O-])=C(C[N+]4(CCNC(=O)c5ccc(O)c(O)c5Cl)CCCC4)CS[C@H]23)cs1.[Na+].[Na+] [Compound I-59]
– | – | – | – | – | 0.5 µg/mL (≈ 0.666 µM) | 0.063 µg/mL (≈ 0.084 µM) | 0.25 µg/mL (≈ 0.333 µM) | 0.5 µg/mL (≈ 0.666 µM) | 1 µg/mL (≈ 1.33 µM) | C[C@@H](O/N=C(\C(=O)N[C@@H]1C(=O)N2C(C(=O)O)=C(C[N+]34CCC[C@H]3CN(C(=O)c3ccc(O)c(O)c3Cl)CC4)CS[C@H]12)c1csc(N)n1)C(=O)[O-] (stereo partly drawn) [Compound I-63]
– | – | – | – | – | 2 µg/mL (≈ 2.63 µM) | 0.125 µg/mL (≈ 0.164 µM) | 0.063 µg/mL (≈ 0.0828 µM) | 0.5 µg/mL (≈ 0.657 µM) | 0.25 µg/mL (≈ 0.328 µM) | N#CC[C@H](O/N=C(\C(=O)N[C@@H]1C(=O)N2C(C(=O)O)=C(C[N@@+]34CC[C@@H](C3)N(C(=O)c3ccc(O)c(O)c3Cl)CC4)CS[C@H]12)c1csc(N)n1)C(=O)[O-] [II-1]
4 µg/mL | 0.125 µg/mL | 0.125 µg/mL | 0.25 µg/mL | 0.5 µg/mL | – | – | – | – | – | C[N+]1(CC2=C(C(=O)[O-])N3C(=O)[C@@H](NC(=O)/C(=N\O[C@@H](CC(=O)[O-])C(=O)[O-])c4nc(N)sc4Cl)[C@H]3SC2)[C@@H]2CC[C@H]1C[C@@H](NC(=O)c1ccc(O)c(O)c1Cl)C2.[Na+].[Na+] (stereo partly drawn) [II-5]
0.5 µg/mL | 0.25 µg/mL | 0.125 µg/mL | 0.5 µg/mL | 0.5 µg/mL | – | – | – | – | – | C[N+]1(CC2=C(C(=O)[O-])N3C(=O)C(NC(=O)C(=NOC(CC(=O)[O-])C(=O)[O-])c4csc(N)n4)C3SC2)C2CCC1CN(C(=O)c1ccc(O)c(O)c1Cl)C2.[Na+].[Na+] (stereo not drawn) [II-7]
0.5 µg/mL | 0.063 µg/mL | 0.125 µg/mL | 0.25 µg/mL | 0.125 µg/mL | – | – | – | – | – | CC(C)(O/N=C(\C(=O)N[C@@H]1C(=O)N2C(C(=O)[O-])=C(C[N+]3(CCNC(=O)c4cc(O)c(O)c(F)c4)CCCC3)CS[C@H]12)c1csc(N)n1)C(=O)[O-].[Na+] [II-15]
0.5 µg/mL | 0.125 µg/mL | 0.125 µg/mL | 0.5 µg/mL | 0.25 µg/mL | – | – | – | – | – | Nc1nc(C(=NOC(CC(=O)[O-])C(=O)[O-])C(=O)NC2C(=O)N3C(C(=O)[O-])=C(C[N+]45CCCC4CN(C(=O)c4cc(O)c(O)c(F)c4)CC5)CSC23)cs1.[Na+].[Na+] (stereo not drawn) [II-16]
– | – | – | – | – | 1 µg/mL (≈ 1.36 µM) | 0.125 µg/mL (≈ 0.17 µM) | 0.063 µg/mL (≈ 0.0856 µM) | 1 µg/mL (≈ 1.36 µM) | 0.5 µg/mL (≈ 0.679 µM) | C[C@@H](O/N=C(\C(=O)N[C@@H]1C(=O)N2C(C(=O)O)=C(C[N@@+]34CC[C@@H](C3)N(C(=O)c3ccc(O)c(O)c3Cl)CC4)CS[C@H]12)c1csc(N)n1)C(=O)[O-] [II-25]
0.5 µg/mL | 0.25 µg/mL | 0.25 µg/mL | 0.25 µg/mL | 0.5 µg/mL | – | – | – | – | – | C[N+]1(CC2=C(C(=O)[O-])N3C(=O)[C@@H](NC(=O)/C(=N\O[C@@H](CC(=O)[O-])C(=O)[O-])c4csc(N)n4)[C@H]3SC2)[C@@H]2CC[C@H]1C[C@@H](NC(=O)c1ccc(O)c(O)c1F)C2.[Na+].[Na+] (stereo partly drawn) [II-37]
– | – | – | – | – | 0.5 µg/mL (≈ 0.665 µM) | 0.125 µg/mL (≈ 0.166 µM) | 0.125 µg/mL (≈ 0.166 µM) | 0.5 µg/mL (≈ 0.665 µM) | 0.125 µg/mL (≈ 0.166 µM) | CC(C)(O/N=C(\C(=O)N[C@@H]1C(=O)N2C(C(=O)O)=C(C[N+]3(CCNC(=O)c4cc(O)c(O)c(Cl)c4)CCCC3)CS[C@H]12)c1csc(N)n1)C(=O)[O-] [II-49]
